One block for each molecule: values may come before it. Bridge positions count the residues as written; N and C are the ends. Square brackets hold non-standard residues; d marks the D form. Ends that are not written are not given here.
Key:
[1] = tested on: Ki-67 labeling of crypt epithelial cells; assay: Ki-67 labeling in large bowel cross sections, DSS-induced colitis in BDF-1 mice; format: in vivo, mouse; conditions: 5-ASA treated mice
Source text: (§1) A total of 40 samples were chosen for analysis of MPO activity and Ki-67 labeling from the treatment groups that received SP-333, its vehicle control (0.1M phosphate buffer, pH 7) and the reference compound (5-ASA). A random number generator (www.random.org) was employed to select samples from these groups (7 from each of the SP-333-recipient groups and 6 from each of the vehicle and 5-ASA groups).
Employing standard procedures, two non-serial sections from each animal, were de-waxed in xylene and rehydrated in graded alcohols to PBS (pH 7.4). Endogenous peroxidase was blocked by incubation in 0.3% […] for 30 min. Antigen retrieval was performed by placing the slides in 1 L of citrate buffer (pH 6) and microwaving at high power for 20 minutes. After cooling for 15 minutes, sections were incubated with 10% normal goat serum for 30 minutes to block non-specific binding Primary antibody (mouse monoclonal IgG, clone MIB-1, Dako) at 1/50 dilution was added and incubated for 1 hour at room temperature. Sections were washed and incubated with biotinylated secondary IgG antibody (1/200 dilution; Vector Labs Inc.), for 45 minutes at room temperature. Subsequently, slides were washed and incubated with ABC Elite reagents (Vector Labs Inc.), for 30 minutes at room temperature. […] Sections were counterstained with thionine, dehydrated and mounted.

DSS-induced colitis = DSS-induced colitis in BDF-1 mice; format: in vivo, mouse
Method: To evaluate the efficacy of plecanatide in DSS induced colitis model, 48 BDF-1 mice were divided into 8 treatment groups (6 mice/group). One group was not exposed to DSS (untreated control) and groups 2-8 were treated with 5% DSS in the drinking water on day 0. Plecanatide or SP-333 solutions formulated in 0.1M phosphate buffer (pH 7) was administered by oral gavage, once a day at 0.005, 0.05, 0.5, 2.5 and 5 mg/kg, from study day −1 (i.e. prior to initiation of DSS treatment) through day 6 for SP-333 or day 7 for plecanatide. DSS treatment was initiated on day 0 for groups 2-8 until the end of the study. Sulfasalazine (80 mg/kg) or 5-ASA (100 mg/kg) was used as positive control and was administered daily. Mice were sacrificed on day 7. The large intestine was removed and weighed. Distal section of the large intestine was collected and fixed as described above.
Disease activity index (DAI) was calculated by scoring in-life parameters starting from day −1 until the end of the study. Once daily, all mice were weighed and assessed for stool consistency, and the presence of overt blood in the stool or around the anus essentially similar to that reported earlier. Colitis severity was assessed by histopathological analyses of H&E stained tissue sections (Hegazi et al., 2005; Dave et al., 2009) employing the following criteria: (score 0) normal appearing crypts; (score 1) abnormal crypt pathology without ulceration; (score 2) depleted crypts with ulceration; (score 3) 20-50% depleted crypts and increased ulceration; (score 4) >50% depleted crypts with substantial ulceration and (score 5) totally ulcerated/inflamed colon with no crypts remaining. All slides were scored in a blinded manner. Colitis severity in TCRα−/− model was scored as previously described^25. All slides were scored in a blinded manner. Disease activity index (DAI) was calculated by assessing body weight, stool consistency, and the presence of overt blood in stools or around the anus, essentially similar to that reported earlier (Hamamoto et al., 1999).

[2] = tested on: myeloperoxidase (MPO) activity in colon tissues; assay: MPO activity in lysates from mid-colon tissues, DSS-induced colitis in BDF-1 mice; format: in vivo, mouse; conditions: 5-ASA 100 mg/kg
Method: as §1
Myeloperoxidase activity in colonic tissue samples was performed according to the method described (Krawisc et al., 1984). Briefly, the rate of change in absorbance at 450 nm was recorded when 20 μl of tissue extract was incubated with […] of reaction buffer containing 0.26 mg/ml 0-dianisidine and 0.6 μl/ml H2O2. Each reaction was performed in triplicate. The rate of reaction was determined (initial slope) and normalized to protein concentration of sample.

NF-κB [3] = assay: Inhibition of NF-κB signaling in LPS-stimulated T84 cells, Western blot; format: cell-based, human
Method: Approximately 1.5×10^6 T84 cells were seeded into 100 mm dishes and cultured essentially as described (Shailubhai et al. 2000). At 85-90% confluence, cells were washed and treated with 10 μg/ml lipopolysaccharides (LPS) from Escherichia coli (Sigma-Aldrich, St. Louis, Mo.) for 4 h. Subsequent to LPS treatment, cells were washed and replenished with fresh media containing 8-Bromo-cyclic GMP (8-Br-cGMP) at 0, 0.1, 1, 10, 100 and 1000 μM (Enzo Life Science, Farmingdale, N.Y.), or SP-333 at 0, 0.01, 0.1, 1 and 10 μM together with 500 μM of phosphodiesterase inhibitor Zaprinast (Sigma-Aldrich, St. Louis, Mo.) for 16 h before harvest. For analyzing phosphorylation status of IKK-α/β, T84 cells were stimulated with LPS (10 μg/ml) for 4 h followed by treatment with 0.1 and 1.0 μM of SP-333 in the presence of 500 μM Zaprinast, for 2 h. The control cells (without LPS treatment) were washed and refilled with fresh media and harvested simultaneously with treated cells. Nuclear and cytosolic extracts were prepared by the previously described method (Aiamkitsumrit et al. 2007). Protein concentration was measured with a Bio-Rad protein assay kit (Bio-Rad, Hercules, Calif.). The extracts were stored at −80° C. until use.
T84 cells at 85-90% confluence were washed and treated with 10 μg/ml Escherichia coli LPS (Sigma-Aldrich, St. Louis, Mo.) for 4 h.
Western Blot analysis: This was performed essentially as described^21 employing either 50 μg of cytoplasmic or 25 μg proteins of the nuclear fractions. The blots were probed overnight with primary antibodies of interest (anti-p65 antibody, 1:200 dilution; anti-IκB antibody 1:500 dilution; anti-phosphorylated p65 antibody, 1:250 dilution; anti-phosphorylated IκB antibody 1:250 dilution; all were from Santa Cruz Biotechnology (Santa Cruz, Calif.). Anti-IKK-β and phosphorylated IKK-α/β (Ser 176/180) were purchased from Cell Signaling Technology, Boston, Mass. and used at 1:500 dilution; anti-mouse or anti-rabbit antibodies conjugated to […] were used for chemiluminescence detection as recommended by manufacturer (GE Healthcare, Piscataway, N.J.).

Src = assay: Activation of Src and GCRA-mediated cGMP production by T84 cells (FIG. 13); format: cell-based, human; conditions: activation of Src
NF-κB [4] = assay: Inhibition of NF-κB signaling in LPS-stimulated T84 cells, Western blot; format: cell-based, human; conditions: zaprinast 500 μM alone
[5] = format: in vitro ADME
Method: The potency of test peptides to stimulate cGMP synthesis in T84 cells was assayed by a published procedure (Shailubhai et al. 2000). Briefly, confluent monolayers of T-84 cells in 24-well plates were washed twice with 250 μl of DMEM containing 50 mM HEPES (pH 7.4), pre-incubated at 37° C. for 10 min with 250 μl of DMEM containing 50 mM HEPES (pH 7.4) and 1 mM isobutylmethylxanthine (IBMX), followed by incubation with test peptide for 30 min. The medium was aspirated, and the reaction was terminated by the addition of 3% perchloric acid. Following centrifugation, and neutralization with 0.1 N NaOH, the resulting supernatant was used directly for measurements of intracellular cGMP using an ELISA kit (Caymen Chemical, Ann Arbor, Mich.). Results are expressed as pmol of cGMP/mg of protein in the cell extracts.
Plecanatide and SP-333 were incubated in simulated intestinal fluid (SIF) for 6-24 h. Inactivated SIF was used as a control. Following the treatment, samples were analyzed by HPLC by cGMP production in T84 cells. […] The active metabolite, SP-338 was characterized by MS and MS/MS and identified to be formed via removal of carboxyl terminal leucine possibly due to cleavage by carboxypeptidases.

[6] = biological target: guanylate cyclase C (GC-C) receptor (human, UniProt P25092 24-1073); assay: cell-based or functional assay
guanylate cyclase C (GC-C) receptor, sequence (P25092 24-1073): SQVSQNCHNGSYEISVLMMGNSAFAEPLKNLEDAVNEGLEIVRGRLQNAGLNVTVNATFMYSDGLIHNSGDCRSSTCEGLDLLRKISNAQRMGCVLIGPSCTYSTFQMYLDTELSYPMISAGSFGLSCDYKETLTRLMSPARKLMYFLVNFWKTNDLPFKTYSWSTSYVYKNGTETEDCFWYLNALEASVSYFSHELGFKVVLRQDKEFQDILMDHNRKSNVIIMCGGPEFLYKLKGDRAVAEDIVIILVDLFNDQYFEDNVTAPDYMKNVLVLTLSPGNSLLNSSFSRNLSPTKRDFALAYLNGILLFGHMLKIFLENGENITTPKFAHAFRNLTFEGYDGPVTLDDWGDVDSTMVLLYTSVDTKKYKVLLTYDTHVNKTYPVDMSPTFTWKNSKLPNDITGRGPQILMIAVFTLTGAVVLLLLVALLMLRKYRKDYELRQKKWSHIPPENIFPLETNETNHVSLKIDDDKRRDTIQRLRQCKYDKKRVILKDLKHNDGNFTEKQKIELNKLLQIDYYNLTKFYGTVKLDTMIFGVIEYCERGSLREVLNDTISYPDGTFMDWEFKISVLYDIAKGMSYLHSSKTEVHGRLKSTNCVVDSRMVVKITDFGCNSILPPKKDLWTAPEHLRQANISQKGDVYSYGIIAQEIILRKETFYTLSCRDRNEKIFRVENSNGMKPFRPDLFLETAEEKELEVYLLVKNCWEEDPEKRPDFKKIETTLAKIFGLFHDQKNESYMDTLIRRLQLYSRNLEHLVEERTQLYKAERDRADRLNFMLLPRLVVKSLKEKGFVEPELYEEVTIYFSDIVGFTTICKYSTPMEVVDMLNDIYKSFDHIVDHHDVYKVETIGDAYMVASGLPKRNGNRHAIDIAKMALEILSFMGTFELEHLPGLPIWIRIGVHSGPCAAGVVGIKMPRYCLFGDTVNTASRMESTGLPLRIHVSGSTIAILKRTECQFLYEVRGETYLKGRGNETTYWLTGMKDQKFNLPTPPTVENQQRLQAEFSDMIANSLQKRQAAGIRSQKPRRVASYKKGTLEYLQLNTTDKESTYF

[7] = 5-ASA 100 mg/kg, vs DSS alone or DSS plus vehicle

Molecule: Nc1ccc(O)c(C(=O)O)c1 [5-ASA, 5-aminosalicylic acid, reference compound]
proportion of Ki-67 positive crypts [1]: 53.5±12.33% | histological evaluation of colon tissues (crypts) (DSS-induced colitis; 5-ASA 100 mg/kg): only patchy loss of crypts | mean DAI scores (DSS-induced colitis; [7]): lower | mean scores of colitis severity (DSS-induced colitis; [7]): lower | histopathology score (DSS-induced colitis; DSS+5-ASA 100 mg/kg, representative image FIG. 10F): 2 | MPO activity compared to DSS treated animals [2]: considerably reduced | initial MPO activity ([2]; p=0.010): 0.029±0.004 units/minute

Molecule: Nc1nc2c(nc(Br)n2[C@@H]2O[C@@H]3COP(=O)(O)O[C@H]3[C@H]2O)c(=O)[nH]1 [8-Br-cGMP, 8-Bromo-cyclic GMP, reference compound]
levels of phospho-p65 (NF-κB [3]; LPS 10 μg/ml 4 h, then 8-Br-cGMP (1 mM) 16 h, zaprinast 500 μM): reduced levels of phospho-p65 in a dose-dependent manner

Molecule: [Cl][Hg][Cl] [HgCl2]
GCRA-mediated cGMP production by T84 cells (Src): inhibited

Molecule: CCCOc1ccccc1-c1nc2nn[nH]c2c(=O)[nH]1 [zaprinast, reference compound]
NF-κB activation (NF-κB [3]; zaprinast 500 μM alone, T84 cells): did not inhibit NF-κB activation | cGMP levels (NF-κB [4]): did not increase cGMP levels

Molecule: Asn^1-Asp^2-Glu^3-Cys^4-Glu^5-Leu^6-Cys^7-Val^8-Asn^9-Val^10-Ala^11-Cys^12-Thr^13-Gly^14-Cys^15 (NDECELCVNVACTGC) [SP-338]
biological activity of the major metabolite of plecanatide in SIF [5]: appears to retain biological activity

cGMP accumulation in T84 cells (EC50) [6]: 0.283 µM | cGMP synthesis in T84 cells (EC50) [6]: 0.283 µM
Molecule: [dN]DECELCVNVACTGC[dL] (disulfide 4-12, 7-15) [SP-333]

cGMP accumulation in T84 cells (EC50) [6]: 0.189 µM
Molecule: NDECELCVNVACTGCL (disulfide 4-12, 7-15) [Plecanatide (SP-304)]

Source: patent US20160235807A1, “AGONISTS OF GUANYLATE CYCLASE USEFUL FOR DOWNREGULATION OF PRO-INFLAMMATORY CYTOKINES” (SYNERGY PHARMACEUTICALS, INC., priority 2013, published 2016)
